Test results published in patent US8188059B2, “Compounds and methods for modulating expression of GCGR” (Isis Pharmaceuticals, Inc., priority 2006, dated 2012).
Strand notation (5' to 3'): a small letter for the sugar, then the base; units joined by * are phosphorothioate-linked, units joined directly phosphodiester-linked; [ ] holds rarer units or linkages, { } end groups; capitals alone tell only the bases. e = 2'-O-(2-methoxyethyl) (MOE); [5mC] = 5-methylcytosine; d = 2'-deoxy (DNA)

Tested on: PCSK9 mRNA
Assay type: cell-based, human
Settings: Hep3B cells, 100 nM, relative to untreated control cells; for % Inhib (PCSK9 mRNA): 0 = no reduction observed
Procedure: When cells reached appropriate confluency, they were treated with oligonucleotide using LIPOFECTIN® as described. […] Cells were treated and data were obtained in duplicate or triplicate. […] Cells were harvested 16-24 hours after oligonucleotide treatment.
Short antisense compounds targeted to a PCSK9 nucleic acid were tested for their effects on PCSK9 mRNA in vitro. The Isis No, gapmer motif and SEQ ID NO of each short antisense compound are shown again in Table 75. Cultured Hep3B cells were treated with 100 nM of short antisense compound. 5-10-5 MOE gapmers targeted to a PCSK9 nucleic acid were used as positive controls. After the treatment period, RNA was isolated from the cells and PCSK9 mRNA levels were measured by quantitative real-time PCR, as described herein. PCSK9 mRNA levels were adjusted according to total RNA content as measured by RIBOGREEN®. Results are presented in Table 75 as percent inhibition of PCSK9 (% Inhib), relative to untreated control cells.

Substance | % Inhib (PCSK9 mRNA) [%] | % Inhibition Range (PCSK9 mRNA)
400297 (antisense eA*eT*dG*dG*dG*dG*d[5mC]*dA*dA*d[5mC]*dT*dT*e[5mC]*eA) [compound 400297] | 0 | –
400298 (antisense e[5mC]*eA*dT*dG*dG*dG*dG*d[5mC]*dA*dA*d[5mC]*dT*eT*e[5mC]) [compound 400298] | 0 | –
400299 (antisense eA*e[5mC]*dA*dT*dG*dG*dG*dG*d[5mC]*dA*dA*d[5mC]*eT*eT) [compound 400299] | 0 | –
400300 (antisense eG*eG*dG*dA*dT*dG*d[5mC]*dT*d[5mC]*dT*dG*dG*eG*e[5mC]) [compound 400300] | 9 | –
400301 (antisense e[5mC]*eG*d[5mC]*dT*d[5mC]*d[5mC]*dA*dG*dG*dT*dT*d[5mC]*e[5mC]*eA) [compound 400301] | 27 | 20-30%
400302 (antisense eG*eA*dT*dA*d[5mC]*dA*d[5mC]*d[5mC]*dT*d[5mC]*d[5mC]*dA*e[5mC]*e[5mC]) [compound 400302] | 0 | –
400303 (antisense eA*eG*dA*dT*dA*d[5mC]*dA*d[5mC]*d[5mC]*dT*d[5mC]*d[5mC]*eA*e[5mC]) [compound 400303] | 0 | –
400304 (antisense eG*eA*dG*dA*dT*dA*d[5mC]*dA*d[5mC]*d[5mC]*dT*d[5mC]*e[5mC]*eA) [compound 400304] | 11 | 10-20%
400305 (antisense eG*e[5mC]*d[5mC]*dT*dG*dT*d[5mC]*dT*dG*dT*dG*dG*eA*eA) [compound 400305] | 38 | 30-40%
400306 (antisense e[5mC]*eT*dG*dT*d[5mC]*dA*d[5mC]*dA*d[5mC]*dT*dT*dG*e[5mC]*eT) [compound 400306] | 40 | 40-50%
400310 (eT*e[5mC]*d[5mC]*d[5mC]*dG*dG*d[5mC]*d[5mC]*dG*d[5mC]*dT*dG*eA*e[5mC]; antisense) [compound 400310] | 8 | –
400311 (eA*eT*d[5mC]*d[5mC]*d[5mC]*dG*dG*d[5mC]*d[5mC]*dG*d[5mC]*dT*eG*eA; antisense) [compound 400311] | 18 | 10-20%
400312 (e[5mC]*eA*dT*d[5mC]*d[5mC]*d[5mC]*dG*dG*d[5mC]*d[5mC]*dG*d[5mC]*eT*eG; antisense) [compound 400312] | 28 | 20-30%
400313 (eG*e[5mC]*dA*dT*d[5mC]*d[5mC]*d[5mC]*dG*dG*d[5mC]*d[5mC]*dG*e[5mC]*eT; antisense) [compound 400313] | 10 | 10-20%
400314 (eG*eT*dG*d[5mC]*d[5mC]*d[5mC]*dT*dT*d[5mC]*d[5mC]*d[5mC]*dT*eT*eG; antisense) [compound 400314] | 26 | 20-30%
400315 (eA*eT*dG*dA*dG*dG*dG*dT*dG*d[5mC]*d[5mC]*dG*e[5mC]*eT; antisense) [compound 400315] | 0 | –
400316 (eT*eA*dT*dG*dA*dG*dG*dG*dT*dG*d[5mC]*d[5mC]*eG*e[5mC]; antisense) [compound 400316] | 8 | –
400317 (e[5mC]*eT*dA*dT*dG*dA*dG*dG*dG*dT*dG*d[5mC]*e[5mC]*eG; antisense) [compound 400317] | 7 | –
400318 (e[5mC]*e[5mC]*dT*dA*dT*dG*dA*dG*dG*dG*dT*dG*e[5mC]*e[5mC]; antisense) [compound 400318] | 26 | 20-30%
400319 (e[5mC]*eG*dA*dA*dT*dA*dA*dA*d[5mC]*dT*d[5mC]*d[5mC]*eA*eG; antisense) [compound 400319] | 0 | –
400320 (e[5mC]*e[5mC]*dG*dA*dA*dT*dA*dA*dA*d[5mC]*dT*d[5mC]*e[5mC]*eA; antisense) [compound 400320] | 0 | –
400321 (eT*e[5mC]*d[5mC]*dG*dA*dA*dT*dA*dA*dA*d[5mC]*dT*e[5mC]*e[5mC]; antisense) [compound 400321] | 0 | –
400322 (eT*eT*d[5mC]*d[5mC]*dG*dA*dA*dT*dA*dA*dA*d[5mC]*eT*e[5mC]; antisense) [compound 400322] | 0 | –
400323 (eG*e[5mC]*d[5mC]*dA*dG*dG*dG*dG*d[5mC]*dA*dG*d[5mC]*eA*eG; antisense) [compound 400323] | 0 | –
400324 (eG*eA*dG*dT*dA*dG*dA*dG*dG*d[5mC]*dA*dG*eG*e[5mC]; antisense) [compound 400324] | 7 | –

Substance | % Inhib (PCSK9 mRNA) [%] | % Inhibition Range (PCSK9 mRNA)
400325 (e[5mC]*e[5mC]*d[5mC]*d[5mC]*dA*dA*dA*dG*dT*d[5mC]*d[5mC]*d[5mC]*e[5mC]*eA; antisense) [compound 400325] | 4 | –
400326 (eT*e[5mC]*d[5mC]*d[5mC]*d[5mC]*dA*dA*dA*dG*dT*d[5mC]*d[5mC]*e[5mC]*e[5mC]; antisense) [compound 400326] | 0 | –
400328 (eA*e[5mC]*dG*dT*dG*dG*dG*d[5mC]*dA*dG*d[5mC]*dA*eG*e[5mC]; antisense) [compound 400328] | 13 | 10-20%
400329 (e[5mC]*eA*d[5mC]*dG*dT*dG*dG*dG*d[5mC]*dA*dG*d[5mC]*eA*eG; antisense) [compound 400329] | 14 | 10-20%
400332 (e[5mC]*eA*dG*dG*dG*dA*dA*d[5mC]*d[5mC]*dA*dG*dG*e[5mC]*e[5mC]; antisense) [compound 400332] | 0 | –
400333 (eT*e[5mC]*dA*dG*dG*dG*dA*dA*d[5mC]*d[5mC]*dA*dG*eG*e[5mC]; antisense) [compound 400333] | 0 | –
400334 (e[5mC]*eT*d[5mC]*dA*dG*dG*dG*dA*dA*d[5mC]*d[5mC]*dA*eG*eG; antisense) [compound 400334] | 0 | –
400335 (e[5mC]*e[5mC]*dT*d[5mC]*dA*dG*dG*dG*dA*dA*d[5mC]*d[5mC]*eA*eG; antisense) [compound 400335] | 0 | –
400336 (eT*e[5mC]*d[5mC]*dT*d[5mC]*dA*dG*dG*dG*dA*dA*d[5mC]*e[5mC]*eA; antisense) [compound 400336] | 4 | –
400337 (eG*eT*d[5mC]*d[5mC]*dT*d[5mC]*dA*dG*dG*dG*dA*dA*e[5mC]*e[5mC]; antisense) [compound 400337] | 0 | –
400338 (eG*eG*dT*d[5mC]*d[5mC]*dT*d[5mC]*dA*dG*dG*dG*dA*eA*e[5mC]; antisense) [compound 400338] | 9 | –
400339 (eT*eG*dG*dT*d[5mC]*d[5mC]*dT*d[5mC]*dA*dG*dG*dG*eA*eA; antisense) [compound 400339] | 0 | –
400340 (e[5mC]*eT*dG*dG*dT*d[5mC]*d[5mC]*dT*d[5mC]*dA*dG*dG*eG*eA; antisense) [compound 400340] | 0 | –
400341 (eG*e[5mC]*dT*dG*dG*dT*d[5mC]*d[5mC]*dT*d[5mC]*dA*dG*eG*eG; antisense) [compound 400341] | 0 | –
400342 (eG*eT*dG*d[5mC]*dT*dG*dG*dG*dG*dG*dG*d[5mC]*eA*eG; antisense) [compound 400342] | 0 | –
400343 (eG*eG*dT*dG*d[5mC]*dT*dG*dG*dG*dG*dG*dG*e[5mC]*eA; antisense) [compound 400343] | 0 | –
400344 (eG*eG*dG*dT*dG*d[5mC]*dT*dG*dG*dG*dG*dG*eG*e[5mC]; antisense) [compound 400344] | 0 | –
400345 (eT*eG*dG*dG*dT*dG*d[5mC]*dT*dG*dG*dG*dG*eG*eG; antisense) [compound 400345] | 0 | –
400346 (eG*eA*dG*d[5mC]*dA*dG*d[5mC]*dT*d[5mC]*dA*dG*d[5mC]*eA*eG; antisense) [compound 400346] | 5 | –
400347 (antisense eG*eG*dA*dG*d[5mC]*dA*dG*d[5mC]*dT*d[5mC]*dA*dG*e[5mC]*eA) [compound 400347] | 0 | –
400348 (antisense eT*eG*dG*dA*dG*d[5mC]*dA*dG*d[5mC]*dT*d[5mC]*dA*eG*e[5mC]) [compound 400348] | 0 | –
400349 (antisense e[5mC]*eT*dG*dG*dA*dG*d[5mC]*dA*dG*d[5mC]*dT*d[5mC]*eA*eG) [compound 400349] | 13 | 10-20%
400350 (antisense e[5mC]*e[5mC]*d[5mC]*dT*d[5mC]*dA*d[5mC]*d[5mC]*d[5mC]*d[5mC]*d[5mC]*dA*eA*eA) [compound 400350] | 15 | 10-20%
400351 (antisense eA*e[5mC]*d[5mC]*d[5mC]*dT*d[5mC]*dA*d[5mC]*d[5mC]*d[5mC]*d[5mC]*d[5mC]*eA*eA) [compound 400351] | 14 | 10-20%
400354 (antisense eG*eA*d[5mC]*dA*d[5mC]*d[5mC]*d[5mC]*dT*d[5mC]*dA*d[5mC]*d[5mC]*e[5mC]*e[5mC]) [compound 400354] | 19 | 10-20%
